In patent US20170202783A1, “Amphiphilic Peptide Nanoparticles for Use as Hydrophobic Drug Carriers and Antibacterial Agents” (Northeastern University, priority 2014, published 2017):
Where a SMILES comes first, the peptide text is derived from it. The star is where a group is joined. Stearoyl = CCCCCCCCCCCCCCCCCC(=O)*

What was measured:
[1] = Solubility of curcumin in water; assay type: physicochemical; settings: thermodynamic from solid
MG-63 osteosarcoma cells [2] = test: Cellular uptake of curcumin by bright field and confocal microscopy; assay type: cell-based, human; settings: 20 μM curcumin
Protocol: (§1) A confocal laser scanning microscope and a bright field microscope were used for a qualitative study of the cellular uptake of curcumin from curcumin-loaded APNPs. First, 1 mL each of the osteosarcoma cell line and the healthy human osteoblast cell line were seeded on a 24-well plate at a density of 2×10^4 cells/mL. […] The cells were then rinsed with phosphate-buffered saline three times to remove the unabsorbed curcumin. The qualitative uptake of curcumin was then monitored by bright field microscopy. In another study, the nuclei of the cells were tracked by blue fluorescent DAPI staining using confocal microscopy (FIGS. 8A-8F), and the F-actin filaments of cells were stained with red fluorescent Rhodamine 6G. After 10 minutes of fixation by 10% formaldehyde solution and subsequent treatment with a 0.1% Triton X-100 solution for 10 minutes, the cells were stained with DAPI and Atto Rho6G phalloidin and observed using a Zeiss LSM710 laser scanning confocal microscope.

[3] = background statement; cited from earlier work
[4] = system: healthy human osteoblasts; test: Cellular uptake of curcumin by bright field and confocal microscopy; assay type: cell-based; settings: normal human osteoblast cells, 20 μM curcumin
Protocol: as §1

Human dermal fibroblasts = settings: 24 hours, MTS
Protocol: Human dermal fibroblasts (Lonza, CC-2511) were plated at a density of 10,000 cells/cm^2 in a 96-well plate and maintained in DMEM culture medium supplemented with 10% fetal bovine serum (FBS, Hyclone) and 1% penicillin/streptomycin (P/S, Hyclone). APNPs were added to the culture medium to achieve the indicated final concentration of C18GR7RGDS, and the cells were incubated for 24 hours prior to determination of cell density by MTS assay.

[5] = system: healthy human osteoblasts; test: MTT cytotoxicity assay; settings: human osteoblast cell line, highest concentration investigated, 24 hours, serum-free medium
Protocol: (§2) MG-63 osteosarcoma (CRL-1427) cells (American Type Culture Collection) were cultured in Eagle's Minimum Essential Medium supplemented with 10% fetal bovine serum and 1% penicillin/streptomycin, while healthy human osteoblasts (C-12760, PromoCell) were cultured in complete growth medium composed of osteoblast basal medium and osteoblast growth medium Supplement Mix. Both cell lines were incubated at 37° C. in a humidified incubator with an atmosphere of 95% […] and 5% CO2. Cells were used at population doubling numbers less than 3. Eagle's Minimum Essential Medium was purchased from the American Type Culture Collection (Manassas, Va., USA), and osteoblast basal medium and osteoblast growth medium Supplemental Mix were purchased from PromoCell (Heidelberg, Germany). Methyl-thiazolyl-tetrazolium (MTT) dye solution was purchased from Promega (Madison, Wis., USA). 4′,6-diamidino-2-phenylindole (DAPI), and Atto Rho6G phalloidin were supplied by Sigma-Aldrich (St Louis, Mo., USA).
(§3) 100 μL of the osteosarcoma and healthy osteoblast cell suspensions were seeded on a 96-well plate at 2×10^3 cells/well (cell density 6,154 cells/cm^2). […] Cells treated with medium only were used as a […] control. […]
(§4) The cells were treated for 24 hours. […] Cell viability was expressed as the ratio of cell density in each sample to the cell density in the control sample.

MG-63 osteosarcoma cells [6] = test: MTT cytotoxicity assay; settings: osteosarcoma cell line, highest concentration investigated, 24 hours, serum-free medium
Protocol: as §2, §3, §4

[7] = Zeta potential measurement (ZS90 Nanosizer); assay type: physicochemical; settings: deionized water
Protocol: The zeta potential of the nanoparticles was determined using 1 mL of each sample, each measured for ten preparations in triplicate.

Row | Compound | solubility [1] [µg/mL] | curcumin uptake, confocal fluorescence (MG-63 osteosarcoma cells [2]) | curcumin uptake, bright field microscopy (MG-63 osteosarcoma cells [2]; 2 hours) | solubility in water [3] | curcumin uptake, confocal fluorescence [4] | curcumin uptake, bright field microscopy ([4]; 2 hours) | concentration resulting in significant loss of cell viability (reduced density of living cells) (Human dermal fibroblasts) [µM] | cytotoxicity [5] | cytotoxicity (MG-63 osteosarcoma cells [6]) | stability in aqueous solution (indicated by zeta potential) [7]
1 | COc1cc(/C=C/C(=O)CC(=O)/C=C/c2ccc(O)c(OC)c2)ccc1O [curcumin, diferuloylmethane] | < 100 | neither cell line showed detectable fluorescence | did not accumulate in the cytosol | insoluble in water | neither cell line showed detectable fluorescence | did not accumulate in the cytosol |  |  |  | 
2 | CCCCCCCCCCCCCCCCCC(=O)NCC(=O)N[C@@H](CCCNC(=N)N)C(=O)N[C@@H](CCCNC(=N)N)C(=O)N[C@@H](CCCNC(=N)N)C(=O)N[C@@H](CCCNC(=N)N)C(=O)N[C@@H](CCCNC(=N)N)C(=O)N[C@@H](CCCNC(=N)N)C(=O)N[C@@H](CCCNC(=N)N)C(=O)N[C@@H](CCCNC(=N)N)C(=O)NCC(=O)N[C@@H](CC(=O)O)C(=O)N[C@@H](CO)C(=O)O [pure C18GR7RGDS APNPs] (Stearoyl-GRRRRRRRRGDS-OH) |  |  |  |  |  |  | ≥ 40 | minor cytotoxicity | minor cytotoxicity | stable in aqueous solution
